Reference: patent US8900819B2, “ADRB2 cancer markers” (The Regents of The University of Michigan, priority 2007, dated 2014)
“Also recorded” adds a separate entry of the source.

Key:
ADRB2 transcript [1] = test: qRT-PCR of ADRB2 transcript after SAHA time course; type: cell-based; conditions: time course of SAHA treatment; FIG. 3J
Protocol: For ChIP and qRT-PCR analysis, DU145 cells were treated with 0.5 μM of SAHA for 30 min, 2, 6, 12 and 24 hrs prior to harvest.
(§1) SYBR green qRT-PCR was carried out according to standard protocols in triplicates (Kleer et al., 2003, supra). Samples were normalized to the mRNA level of the house-keeping gene GAPDH or RPL13A.

ADRB2 promoter [2] = test: ChIP of endogenous PRC2 complex, 3mH3K27 and acetylated H3 at the ADRB2 promoter; type: cell-based; conditions: FIG. 3H-I
Protocol: ChIP was performed according to published protocols with slight modifications (Boyd et al., Proc Natl Acad Sci USA 95, 13887-13892 1998). Briefly, formaldehyde was added directly to the cultured cells to a final concentration of 1%. For metastasis tissues, samples were first chopped into small pieces with a razor blade and transferred into 5-10 ml PBS before adding formaldehyde. Cells were rotated at room temperature for 10 min. The crosslinking was stopped by 1/20V of 2.5M Glycine and the cells were washed with 1×PBS and harvested in 1×PBS with proteinase inhibitors. Metastasis tissue samples were further disaggregated using a tissue homogenizer. The cells were then pelleted and resuspended in cell lysis buffer containing protease inhibitors. After incubation in cell lysis buffer for 10 min, the samples were pelleted, resuspended in nuclei lysis buffer and sonicated to chromatins with an average size of 500 bp. The chromatins were precleared using Salmon sperm DNA/Protein A Agarose-50% flurry and incubated with specific antibodies overnight. […] The next day, the antibody-bound chromatin was pooled down using protein A/agarose, washed extensively, and reverse-crosslinked. Immunoprecipitated DNA and whole cell extract DNA were purified by treatment with RNase A, proteinase K and purified using Qiaquick PCR purification kit (Qiagen, Valencia, Calif.). The purified DNA was used for PCR analysis of enrichment. Purified DNA was blunted and ligated to linkers and amplified by a two-stage ligation-mediated PCR (LM-PCR) protocol (Lee et al., Cell 125, 301-313 2006) to generate enough chromatins for PCR analysis of multiple target genes or for hybridization to promoter arrays. Equal amount of amplified input and ChIP-enriched chromatins were subjected to PCR testing for enrichment of target gene promoters. For ChIP and qRT-PCR analysis, DU145 cells were treated with 0.5 μM of SAHA for 30 min, 2, 6, 12 and 24 hrs prior to harvest.

ADRB2 promoter [3] = test: ChIP of ectopic Myc-EZH2 at the ADRB2 promoter in H16N2 cells; type: cell-based, human; conditions: H16N2 cells with EZH2 adenovirus; FIG. 3F
Protocol: ChIP was performed according to published protocols with slight modifications (Boyd et al., Proc Natl Acad Sci USA 95, 13887-13892 1998). Briefly, formaldehyde was added directly to the cultured cells to a final concentration of 1%. For metastasis tissues, samples were first chopped into small pieces with a razor blade and transferred into 5-10 ml PBS before adding formaldehyde. Cells were rotated at room temperature for 10 min. The crosslinking was stopped by 1/20V of 2.5M Glycine and the cells were washed with 1×PBS and harvested in 1×PBS with proteinase inhibitors. Metastasis tissue samples were further disaggregated using a tissue homogenizer. The cells were then pelleted and resuspended in cell lysis buffer containing protease inhibitors. After incubation in cell lysis buffer for 10 min, the samples were pelleted, resuspended in nuclei lysis buffer and sonicated to chromatins with an average size of 500 bp. The chromatins were precleared using Salmon sperm DNA/Protein A Agarose-50% flurry and incubated with specific antibodies overnight. Antibodies used in this study include EZH2 (BD Bioscience), EED (Upstate), SUZ12 (Abeam), trimethylated H3K27 (Upstate), Acetyl-H3K27 (Upstate), Myc (Abeam), and IgG control (Santa Cruz). The next day, the antibody-bound chromatin was pooled down using protein A/agarose, washed extensively, and reverse-crosslinked. […]

RWPE-shADRB2 cells = test: Modified basement membrane invasion assay in RWPE-shADRB2 cells; type: cell-based; conditions: RWPE-shADRB2 cells treated with 0, 10, or 100 μM
Protocol: The ADRB2 antagonist ICI 118,551, and agonist Isoproterenol was purchased from Sigma-Aldrich, and used at a working concentration of 1 μM, 10 μM or 100 μM. SAHA was obtained from Biovision Inc, dissolved in DMSO, and used at a working concentration of 1 μM. DZNep was used at 5 μM and cells were treated for 48 hrs before being harvested for RNA isolation. EZH2 adenovirus infection and RNA interference were performed as described (Kleer et al., Proc Natl Acad Sci USA 100, 11606-11611 2003; Varambally et al., Cancer Cell 8, 393-406 2002). RWPE cells with stable ADRB2 knockdown were generated by transfection with ADRB2 shRNA constructs (Open Biosystems, Huntsville, Ala.) and selection with puromycin. DU145 cell lines with stable EZH2 knockdown were generated using EZH2 shRNA expressing constructs (Open Biosystems). Basement membrane matrix invasion assay was essentially performed as previously described (Kleer et al., 2003, supra). Briefly, warm serum free medium was mixed with Matrigel (Fisher Scientific) at 1:3 ratio, 300 μl of this Matrigel mixture was added into the center of each cell well inserts of the Chemicon 24-well plate (Chemicon), and allowed to solidify at room temperature for 1-2 hrs. Cells were trypsinized and resuspended in serum-free medium. […] The stained cells were then counted using a microscope and images taken.

[4] = system: DU145 prostate cancer cells; test: Modified basement membrane invasion assay in DU145 cells; type: cell-based
Protocol: (§2) The ADRB2 antagonist ICI 118,551, and agonist Isoproterenol was purchased from Sigma-Aldrich, and used at a working concentration of 1 μM, 10 μM or 100 μM. SAHA was obtained from Biovision Inc, dissolved in DMSO, and used at a working concentration of 1 μM. DZNep was used at 5 μM and cells were treated for 48 hrs before being harvested for RNA isolation. Basement membrane matrix invasion assay was essentially performed as previously described (Kleer et al., 2003, supra). Briefly, warm serum free medium was mixed with Matrigel (Fisher Scientific) at 1:3 ratio, 300 μl of this Matrigel mixture was added into the center of each cell well inserts of the Chemicon 24-well plate (Chemicon), and allowed to solidify at room temperature for 1-2 hrs. Cells were trypsinized and resuspended in serum-free medium. Approximately 1×10^5 cells in 300 μl of serum free medium were placed into each insert, the upper chamber, whereas 500 μl of full medium was added to the lower chamber. Cells were treated with corresponding drug for 10 min prior to be placed into invasion chambers. Cells were then grown in the upper chamber for 48 hrs. The non-invading cells inside the insert were removed and the insert were stained for invaded cells on the lower surface of the membrane. The stained cells were then counted using a microscope and images taken.

[5] = system: DU145 prostate cancer cells; test: Murine prostate tumor xenograft model (DU145); type: in vivo; conditions: nude mice, daily intraperitoneal injection 400 μg/day or 800 ug/day vs PBS; FIG. 5B
Protocol: All procedures involving mice were approved by the University Committee on Use and Care of Animals of the University of Michigan. Male nude athymic BALB/c nu/nu mice 5-week-old (Charles River Laboratory, Wilmington, Mass.) were used for examining the tumorigenicity. […] To evaluate the role of β-adrenergic signaling in tumor formation, DU145 cell was propagated, and treated with PBS or 10 μM Isoproterenol at 24 hrs prior to harvest. Cells were then harvested and suspended in a 0.1 ml PBS with or without treatment of 10 μM Isoproterenol. A total of 15 mice (n=5 per group) were each implanted with 5×10^6 DU145 cells into the dorsal flank subcutaneously. Treatment started 24 hrs after implantation. Each group was administered daily by intraperitoneal injection with either PBS or Isoproterenol (at 400 μg/day or 800 μg/day). Tumor size was measured every week and tumor volumes were estimated using the formula (n/6)(L×W2), where L=length of tumor and W=width.

[6] = system: RWPE benign prostate epithelial cells; test: Immunoblot of EMT biomarkers and cell adhesion molecules in RWPE cells; type: cell-based; conditions: FIG. 4F
Protocol: (§3) The ADRB2 antagonist ICI 118,551, and agonist Isoproterenol was purchased from Sigma-Aldrich, and used at a working concentration of 1 μM, 10 μM or 100 μM. SAHA was obtained from Biovision Inc, dissolved in DMSO, and used at a working concentration of 1 μM. DZNep was used at 5 μM and cells were treated for 48 hrs before being harvested for RNA isolation.
Cell extracts were separated by SDS-PAGE and blotted onto nitrocelllular membranes, immunoblotted with antibodies and visualized using ECL-plus (Amercham Bioscience). The following antibodies were used: ADRB2 (Abcam), β-tubulin (Santa Cruz), EZH2 (BD Bioscience). The anti-ADRB2 antibody usually gives a major band of predicted size (46.5 kDa). However, some lots of this antibody may give an extra, weaker band about 5 kDa above the predicted band.

RWPE cells = test: Modified basement membrane invasion assay in RWPE cells; type: cell-based; conditions: noninvasive RWPE cells treated with 0, 1, or 10 μM; FIG. 4C
Protocol: as §3
as §2, with “Basement” for “The ADRB2 antagonist ICI 118,551, and agonist Isoproterenol was purchased from Sigma-Aldrich, and used at a working concentration of 1 μM, 10 μM or 100 μM. SAHA was obtained from Biovision Inc, dissolved in DMSO, and used at a working concentration of 1 μM. DZNep was used at 5 μM and cells were treated for 48 hrs before being harvested for RNA isolation. Basement”

ADRB2 transcript [7] = test: qRT-PCR of ADRB2 transcript after DZNep in breast and prostate cancer cell lines; type: cell-based; conditions: 5 μM, 48 hrs; batch of breast and prostate cancer cell lines; FIG. 3K
Protocol: as §3, §1

O=C(CCCCCCC(=O)Nc1ccccc1)NO [SAHA]
ADRB2 transcript (ADRB2 transcript [1]): up-regulated; also recorded: upregulation of ADRB2 transcripts
H3K27 trimethylation at the ADRB2 promoter (ADRB2 promoter [2]): marked reduction of PRC2 binding and consequent H3K27 trimethylation
acetylated H3 at the ADRB2 promoter (ADRB2 promoter [2]): accumulation of acetylated H3
PRC2 binding at the ADRB2 promoter (ADRB2 promoter [2]; endogenous PRC2): sensitive to the HDAC inhibitor SAHA; also recorded: marked reduction of PRC2 binding
recruitment of Myc-EZH2 to the ADRB2 promoter (ADRB2 promoter [3]): this binding being sensitive to SAHA

CC(C)NCC(O)c1ccc(O)c(O)c1 (centres unmarked) [Isoproterenol]
cell invasion (RWPE-shADRB2 cells): inhibits cell invasion
cell invasion (RWPE-shADRB2 cells; listed as isoproterenol): significantly reduced invasion
cell invasion ([4]; DU145 cells treated with 0, 10, or 100 μM): inhibits cell invasion
cell invasion ([4]; DU145 cells treated with 0, 10, or 100 μM, listed as isoproterenol): significantly reduced invasion
cell invasion ([4]; PCA model system, cell line not given): decreased cell invasion
xenograft tumor size [5]: significantly (two-sample t-test, p=0.006) smaller tumors

Cc1ccc(OCC(O)C(C)NC(C)C)c2c1CCC2 (centres unmarked) [ICI 118,551]
expression of EMT biomarkers and cell adhesion molecules [6]: regulates the expression of EMT biomarkers and cell adhesion molecules; also recorded: recaptured the expressional changes in RWPE-shADRB2 cells
cell invasion (RWPE cells): leads to increased invasion; also recorded: significantly increased invasion

Nc1nccc2c1ncn2C1C=C(CO)C(O)C1O (centres unmarked) [DZNep]
ADRB2 transcript (ADRB2 transcript [7]): Marked up-regulation; also recorded: strong induction (de-repression) of ADRB2 in all cell lines tested
